The values below come from patent publication US7572783B2 (Amgen Inc., priority 2004, dated 2009).

For the assay, the target named is T1, human GHSR1a (Homo sapiens, UniProt Q92847).
T1 construct: expressed in transfected cells
T1 sequence (Q92847 whole entry): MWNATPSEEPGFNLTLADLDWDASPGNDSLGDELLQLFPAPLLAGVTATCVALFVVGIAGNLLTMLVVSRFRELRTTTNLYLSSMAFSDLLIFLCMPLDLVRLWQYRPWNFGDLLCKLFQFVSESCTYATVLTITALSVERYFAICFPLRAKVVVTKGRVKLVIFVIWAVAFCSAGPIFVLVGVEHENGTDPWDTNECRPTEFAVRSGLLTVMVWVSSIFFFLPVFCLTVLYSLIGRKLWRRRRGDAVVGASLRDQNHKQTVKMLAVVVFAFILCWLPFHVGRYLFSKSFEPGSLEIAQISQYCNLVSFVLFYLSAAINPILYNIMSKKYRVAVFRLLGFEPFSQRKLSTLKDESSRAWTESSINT
The assay can be described thus: Aequorin luminescent functional assay (intracellular Ca2+, ghrelin-stimulated). To be noted: stable cell line expressing human GHSR1a and apoaequorin; final ghrelin 3x EC50 (20 nM); read-out: Class (based on IC50 values). How it is done: IC50 values of inventive compounds may be assessed as follows. An aequorin (Euroscreen) luminescent assay (Stabels et al., 1997) measuring the intracellular Ca^2+ concentration was used as the functional assay to evaluate the potency of the compounds. A stable cell line, expressing human GHSR1a and apoaequorin in mitochondria was used in the aequorin assay. 5×10^6 cells per mL were incubated at room temperature in HyClone Media (Perbio) supplemented with 2 μM coelenterazine (Molecular Probes). After 2 hrs cells were diluted to 1×10^6 cells per ml in HyClone Medium.
50 μL of the cell suspension was added to each well of a 96-well plate containing 50 μL of compound, diluted in HyClone Medium. The cell suspension/compound mixture was incubated for 30 seconds before 50 μL of a 9× EC50 concentrations of a human ghrelin solution, in HyClone Medium, was injected. The final Ghrelin concentration was 3× EC50 (20 nM). Aequorin luminescence elicited by intracellular Ca^2+ in the cells was recorded for a total of 60 seconds with a microplate luminometer (Microlumate, Berthold). IC50 of the compounds in this assay was calculated with Prism 4.
As for `CC(C)C(C(=O)N1CCC(NCc2ccc(F)cc2)CC1)N1CCc2ccc(Oc3ccc(F)cc3F)cc2C1=O` (centres unmarked) [7-(2,4-difluoro-phenoxy)-2-{1-[4-(4-fluoro-benzylamino)-piperidine-1-carbonyl]-2-methyl-propyl}-3,4-dihydro-2H-isoquinolin-1-one], the IC50 was at most 10 nM.
As for `CCc1ccccc1Oc1ccc2c(c1)C(=O)N(C(C(=O)N1CCC(NC3CC3)CC1)C(C)C)CC(=O)N2` (centres unmarked) [4-[1-(4-cyclopropylamino-piperidine-1-carbonyl)-2-methyl-propyl]-7-(2-ethyl-phenoxy)-3,4-dihydro-1H-benzo[e][1,4]diazepine-2,5-dione], the IC50 lay in the range of 10 to 50 nM.
The value for `CC(C)C(C(=O)N1CCC(NCCc2ccc(F)cc2)CC1)N1CCc2ccc(Oc3ccc(F)cc3F)cc2C1=O` (centres unmarked) [7-(2,4-difluoro-phenoxy)-2-(1-{4-[2-(4-fluoro-phenyl)-ethylamino]-piperidine-1-carbonyl}-2-methyl-propyl)-3,4-dihydro-2H-isoquinolin-1-one] was at most 10 nM.
Regarding `CC(C)C(C(=O)N1CCC(NCCc2ccc(F)cc2)CC1)N1CC(=O)Nc2ccc(Oc3ccccc3C(C)(C)C)cc2C1=O` (centres unmarked) [7-(2-tert-butyl-phenoxy)-4-(1-{4-[2-(4-fluoro-phenyl)-ethylamino]-piperidine-1-carbonyl}-2-methyl-propyl)-3,4-dihydro-1H-benzo[e][1,4]diazepine-2,5-dione], the half-inhibitory concentration (IC50) is 50 to 500 nM.
Take `CC(C)C(C(=O)N1CCC(NC2CC2)CC1)N1CC(=O)Nc2ccc(Oc3ccccc3C(C)(C)C)cc2C1=O` (centres unmarked) [7-(2-tert-butyl-phenoxy)-4-[1-(4-cyclopropylamino-piperidine-1-carbonyl)-2-methyl-propyl]-3,4-dihydro-1H-benzo[e][1,4]diazepine-2,5-dione]: the concentration for half-maximal inhibition (IC50) was in the range of 10 to 50 nM.
